Reference: PMC4032197 (Journal of Medicinal Chemistry, 2014)

Tests used:
human EP2 receptors [1] = biological target: T1, human EP2 receptors (Homo sapiens, UniProt P43116); settings: for EP2 potency (in words): tested at 1 μM
[2] = mouse
human EP2 receptors [3] = biological target: T1, human EP2 receptors; settings: earlier study; cited from earlier work

T1 sequence (P43116 whole entry): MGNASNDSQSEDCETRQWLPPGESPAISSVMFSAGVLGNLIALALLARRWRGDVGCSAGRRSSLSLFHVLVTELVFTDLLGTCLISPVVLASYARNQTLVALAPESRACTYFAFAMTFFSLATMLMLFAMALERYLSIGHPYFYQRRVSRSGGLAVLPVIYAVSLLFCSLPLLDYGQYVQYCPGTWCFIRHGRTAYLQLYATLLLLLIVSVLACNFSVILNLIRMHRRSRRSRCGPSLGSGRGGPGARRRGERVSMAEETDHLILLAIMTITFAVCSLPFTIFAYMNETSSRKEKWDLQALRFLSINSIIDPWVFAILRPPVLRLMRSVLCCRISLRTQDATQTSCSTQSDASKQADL

| Compound | fold less EP2 potency in comparison to 5a (human EP2 receptors [1]) | EP2 potency (in words) (human EP2 receptors [1]) | further results |
| --- | --- | --- | --- |
| COc1ccc(/C=C/C(=O)NCCn2c(C(F)(F)F)cc3ccccc32)cc1 [5e] | – | – | fold less EP2 potency in comparison to 5d (human EP2 receptors [1]): 16 fold |
| Cc1cc(/C=C/C(=O)NCCn2c(C(F)(F)F)cc3ccccc32)cc(C)c1F [5f] | – | – | fold less EP2 potency in comparison to 5d (human EP2 receptors [1]): 16 fold |
| COc1cc(/C=C/C(=O)NCCc2c(C)oc3ccccc23)cc(OC)c1OC [5k] | 138 fold | – | – |
| COc1cc(/C=C/C(=O)NCc2c(C)[nH]c3ccccc23)cc(OC)c1OC [5s] | – | complete loss of potency | – |
| COc1ccc(CCNC(=O)CCn2c(C)cc3ccccc32)cc1OC [5u] | – | killed EP2 potency | – |
| COc1cc(C(N)CC(=O)NCCn2c(C)cc3ccccc32)cc(OC)c1OC (centres unmarked) [5w] | 180 fold | – | – |
| COC(=O)[C@H](Cc1c(C)[nH]c2ccccc12)NC(=O)/C=C/c1cc(OC)c(OC)c(OC)c1 [5y] | – | inactive | – |
| Cc1cc2ccccc2n1CCNC(=O)/C=C/c1ccc(OCCO)c(OCCO)c1 [6a, (E)-3-(3,4-Bis(2-hydroxyethoxy)phenyl)-N-(2-(2-methyl-1H-indol-1-yl)ethyl)acrylamide] | – | – | in vivo plasma half-life [2]: more than an hour; brain penetration property ([2]; in vivo): poor |
| COc1cc(/C=C/C(=O)OCCn2c(C)cc3ccccc32)cc(OC)c1OC [6h] | about 140 fold | – | – |
| Cc1cc2ccccc2n1CCNC(=O)C1CC1c1ccc(F)cc1 (centres unmarked) [6i] | 100 fold | – | – |
| COc1cc(/C=C/C(=O)NCCN2CCCCC2C)cc(OC)c1OC (centres unmarked) [6j] | – | – | EP2 activity (in words) (human EP2 receptors [3]): complete loss of activity |
| COc1ccc(/C=C/C(=O)NCCn2c(C)cc3ccccc32)cc1 [6q] | 7 fold | – | – |
| COc1cc(/C=C/C(=O)NCCc2n[nH]c3ccccc23)cc(OC)c1OC [6t] | – | completely lost EP2 potency | – |
